Experimental data from patent US11739098B2 (BRISTOL-MYERS SQUIBB COMPANY, priority 2017, dated 2023).

What was measured:
Assay type in all cases: cell-based
human TLR7 = target: T1, human TLR7 (Homo sapiens, UniProt Q9NYK1); test: TLR7 inhibition reporter assay (HEK-Blue cells, SEAP reporter, gardiquimod stimulation); details: HEK-Blue cells overexpressing human TLR7, SEAP reporter, gardiquimod 7.5 μM
T1 construct: host or cells: HEK-Blue cells (HEK293-derived reporter line)
T1 sequence (Q9NYK1 27-1049): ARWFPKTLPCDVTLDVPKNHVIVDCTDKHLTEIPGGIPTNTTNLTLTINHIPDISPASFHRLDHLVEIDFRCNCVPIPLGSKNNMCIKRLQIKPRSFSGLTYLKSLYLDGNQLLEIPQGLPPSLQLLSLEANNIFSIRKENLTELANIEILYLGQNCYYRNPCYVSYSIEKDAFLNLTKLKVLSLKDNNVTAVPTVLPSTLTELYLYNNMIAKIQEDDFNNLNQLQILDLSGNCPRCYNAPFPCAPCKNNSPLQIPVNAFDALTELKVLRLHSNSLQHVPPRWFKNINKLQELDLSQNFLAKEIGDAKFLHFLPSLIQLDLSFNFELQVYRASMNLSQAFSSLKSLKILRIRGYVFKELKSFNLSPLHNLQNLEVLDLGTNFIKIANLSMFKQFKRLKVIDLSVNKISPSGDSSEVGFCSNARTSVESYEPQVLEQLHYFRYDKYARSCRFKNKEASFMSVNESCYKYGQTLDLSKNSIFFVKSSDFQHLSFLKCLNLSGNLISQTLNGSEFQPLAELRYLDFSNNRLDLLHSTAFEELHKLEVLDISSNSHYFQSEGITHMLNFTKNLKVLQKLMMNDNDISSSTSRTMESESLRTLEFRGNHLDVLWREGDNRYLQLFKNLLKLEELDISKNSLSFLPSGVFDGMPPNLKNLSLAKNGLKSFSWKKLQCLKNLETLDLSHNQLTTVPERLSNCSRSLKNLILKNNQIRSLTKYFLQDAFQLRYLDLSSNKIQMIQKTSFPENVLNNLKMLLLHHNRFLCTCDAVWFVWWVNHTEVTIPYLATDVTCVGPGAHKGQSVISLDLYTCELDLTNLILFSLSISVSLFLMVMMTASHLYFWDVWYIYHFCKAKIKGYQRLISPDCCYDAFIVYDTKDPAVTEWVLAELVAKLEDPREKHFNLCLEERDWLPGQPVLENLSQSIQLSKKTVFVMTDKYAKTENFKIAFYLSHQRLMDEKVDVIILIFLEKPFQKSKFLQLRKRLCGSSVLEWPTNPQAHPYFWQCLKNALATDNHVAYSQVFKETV
Method: (§1) TLR7/8/9 Inhibition Reporter Assays
(§2) HEK-Blue™-cells (Invivogen) overexpressing human TLR7, TLR8 or TLR9 receptors were used for screening inhibitors of these receptors using an inducible SEAP (secreted embryonic alkaline phosphatase) reporter gene under the control of the IFN-β minimal promoter fused to five NF-κB and AP-1-binding sites. Briefly, cells are seeded into Greiner 384 well plates (15000 cells per well for TLR7, 20,000 for TLR8 and 25,000 for TLR9) and then treated with test compounds in DMSO to yield a final dose response concentration range of 0.05 nM-50 μM. After a 30 minute compound pre-treatment at room temperature, the cells are then stimulated with a TLR7 ligand (gardiquimod at a final concentration of 7.5 μM), TLR8 ligand (R848 at a final concentration of 15.9 μM) or TLR9 ligand (ODN2006 at a final concentration of 5 nM) to activate NF-κB and AP-1 which induce the production of SLAP After a 22 hour incubation at […], SLAP levels are determined with the addition of HLK-Blue™ Detection reagent (Invivogen), a cell culture medium that allows for detection of SLAP, according to manufacturer's specifications. The percent inhibition is determined as the […] in the HEK-Blue signal present in wells treated with agonist plus DMSO alone compared to wells treated with a known inhibitor.

human TLR8 = target: T2, human TLR8 (Homo sapiens, UniProt Q9NR97); test: TLR8 inhibition reporter assay (HEK-Blue cells, SEAP reporter, R848 stimulation); details: HEK-Blue cells overexpressing human TLR8, SEAP reporter, R848 15.9 μM
T2 construct: host or cells: HEK-Blue cells (HEK293-derived reporter line)
T2 sequence (Q9NR97 27-1041): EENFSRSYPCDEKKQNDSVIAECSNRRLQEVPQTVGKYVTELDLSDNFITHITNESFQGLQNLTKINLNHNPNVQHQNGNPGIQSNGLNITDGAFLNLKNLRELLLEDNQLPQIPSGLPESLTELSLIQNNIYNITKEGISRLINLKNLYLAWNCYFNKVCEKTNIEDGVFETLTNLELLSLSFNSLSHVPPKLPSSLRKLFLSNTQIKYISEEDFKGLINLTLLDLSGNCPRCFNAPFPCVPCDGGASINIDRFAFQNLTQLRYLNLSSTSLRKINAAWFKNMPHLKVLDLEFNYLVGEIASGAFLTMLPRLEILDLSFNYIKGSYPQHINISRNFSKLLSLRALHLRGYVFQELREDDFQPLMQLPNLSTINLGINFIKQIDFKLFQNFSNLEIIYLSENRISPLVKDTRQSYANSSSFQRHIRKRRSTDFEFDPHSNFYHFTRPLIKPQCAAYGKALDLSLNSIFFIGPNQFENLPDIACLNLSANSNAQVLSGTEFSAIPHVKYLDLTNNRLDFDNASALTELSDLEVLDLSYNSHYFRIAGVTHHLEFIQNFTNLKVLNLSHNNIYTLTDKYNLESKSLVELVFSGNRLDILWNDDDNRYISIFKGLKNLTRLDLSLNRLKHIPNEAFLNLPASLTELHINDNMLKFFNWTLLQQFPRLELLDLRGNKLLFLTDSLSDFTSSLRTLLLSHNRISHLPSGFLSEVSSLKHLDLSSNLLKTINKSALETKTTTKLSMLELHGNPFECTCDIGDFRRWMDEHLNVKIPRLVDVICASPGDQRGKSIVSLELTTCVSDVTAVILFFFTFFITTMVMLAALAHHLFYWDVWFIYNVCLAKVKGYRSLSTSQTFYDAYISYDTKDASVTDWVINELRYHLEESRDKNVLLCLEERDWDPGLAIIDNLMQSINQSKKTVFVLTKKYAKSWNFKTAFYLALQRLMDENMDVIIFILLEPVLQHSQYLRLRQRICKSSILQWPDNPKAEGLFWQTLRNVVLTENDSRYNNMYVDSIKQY
Method: as §1, §2

human TLR9 = target: T3, human TLR9 (Homo sapiens, UniProt Q9NR96); test: TLR9 inhibition reporter assay (HEK-Blue cells, SEAP reporter, ODN2006 stimulation); details: HEK-Blue cells overexpressing human TLR9, SEAP reporter, ODN2006 5 nM
T3 construct: host or cells: HEK-Blue cells (HEK293-derived reporter line)
T3 sequence (Q9NR96 26-1032): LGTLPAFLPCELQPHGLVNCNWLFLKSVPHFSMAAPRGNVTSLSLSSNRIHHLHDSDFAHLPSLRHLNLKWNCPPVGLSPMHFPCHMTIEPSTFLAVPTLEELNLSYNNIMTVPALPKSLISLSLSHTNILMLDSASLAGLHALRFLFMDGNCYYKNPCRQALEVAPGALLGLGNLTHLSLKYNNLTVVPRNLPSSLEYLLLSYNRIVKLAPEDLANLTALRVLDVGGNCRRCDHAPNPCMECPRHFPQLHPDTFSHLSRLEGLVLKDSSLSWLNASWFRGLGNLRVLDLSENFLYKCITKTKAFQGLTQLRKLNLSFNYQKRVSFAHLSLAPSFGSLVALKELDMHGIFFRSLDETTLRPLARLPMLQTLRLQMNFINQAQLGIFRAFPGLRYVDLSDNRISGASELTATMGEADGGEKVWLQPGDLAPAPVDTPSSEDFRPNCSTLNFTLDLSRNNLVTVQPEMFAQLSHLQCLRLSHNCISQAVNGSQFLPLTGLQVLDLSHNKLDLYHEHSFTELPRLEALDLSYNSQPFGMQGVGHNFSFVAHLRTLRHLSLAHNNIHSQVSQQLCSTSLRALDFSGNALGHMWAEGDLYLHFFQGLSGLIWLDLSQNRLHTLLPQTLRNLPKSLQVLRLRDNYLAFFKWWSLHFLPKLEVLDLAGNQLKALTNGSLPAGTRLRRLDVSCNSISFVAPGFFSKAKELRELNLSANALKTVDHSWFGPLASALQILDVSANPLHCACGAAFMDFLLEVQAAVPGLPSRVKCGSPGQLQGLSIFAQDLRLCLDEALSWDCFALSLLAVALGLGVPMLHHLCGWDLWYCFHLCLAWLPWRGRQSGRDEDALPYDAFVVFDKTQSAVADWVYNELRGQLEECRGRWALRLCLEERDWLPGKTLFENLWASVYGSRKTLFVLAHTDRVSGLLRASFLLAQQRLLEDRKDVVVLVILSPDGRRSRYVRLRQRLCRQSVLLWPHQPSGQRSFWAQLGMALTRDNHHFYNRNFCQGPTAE
Method: as §1, §2

Structure (SMILES) | IC50 (human TLR7) [µM] | IC50 (human TLR8) [µM] | IC50 (human TLR9) [µM]
CC(C)c1c(-c2cccn3ncnc23)[nH]c2ccc(C3CCNCC3)cc12 [Example 196, 8-(3-isopropyl-5-(piperidin-4-yl)-1H-indol-2-yl)-[1,2,4]triazolo[1,5-a]pyridine] | < 0.1 | < 0.1 | 1 to 50
Cc1c(-c2[nH]c3ccc(C4CCNCC4)cc3c2C(C)C)ccc2nccn12 [Example 111, 6-(3-isopropyl-5-(piperidin-4-yl)-1H-indol-2-yl)-5-methylimidazo[1,2-a]pyridine] | < 0.1 | 0.1 to 1 | 
CNCC(=O)N1CCC(c2ccc3[nH]c(-c4ccc5nc(C)cn5c4)c(CC(F)F)c3c2)CC1 [Example 550, 1-(4-(3-(2,2-difluoroethyl)-2-(2-methylimidazo[1,2-a]pyridin-6-yl)-1H-indol-5-yl)piperidin-1-yl)-2-(methylamino)ethan-1-one] | < 0.1 |  | 0.1 to 1
Cc1c(-c2ccnc3[nH]nnc23)[nH]c2ccc(C3CCNCC3)cc12 [Example 233, 7-(3-methyl-5-(piperidin-4-yl)-1H-indol-2-yl)-3H-[1,2,3] triazolo[4,5-b]pyridine] | 1 to 50 | 1 to 50 | 
COc1cc(-c2[nH]c3ccc(C4CCNCC4)cc3c2C(C)C)cn2cc(C(=O)N(C)C)nc12 [Example 263, 6-(3-isopropyl-5-(piperidin-4-yl)-1H-indol-2-yl)-8-methoxy-N,N-dimethylimidazo[1,2-a]pyridine-2-carboxamide] |  | < 0.1 | 1 to 50
CNC(=O)CN1CCC(c2ccc3[nH]c(-c4ccc5nc(C)cn5c4)c(CC(F)F)c3c2)CC1 [Example 417, 2-(4-(3-(2,2-difluoroethyl)-2-(2-methylimidazo[1,2-a]pyridin-6-yl)-1H-indol-5-yl)piperidin-1-yl)-N-methylacetamide] | < 0.1 |  | 0.1 to 1
Cc1cn2cc(-c3[nH]c4ccc(C5CCNCC5)cc4c3CC(F)F)ccc2n1 [Example 129, 6-(3-(2,2-difluoroethyl)-5-(piperidin-4-yl)-1H-indol-2-yl)-2-methylimidazo[1,2-a]pyridine] | < 0.1 |  | 0.1 to 1
CCc1c(-c2cccc3c2cnn3C)[nH]c2ccc(C3CCN(C(=O)CN4CCCN(C)CC4)CC3)cc12 [Example 521, 1-(4-(3-ethyl-2-(1-methyl-1H-indazol-4-yl)-1H-indol-5-yl)piperidin-1-yl)-2-(4-methyl-1,4-diazepan-1-yl)ethan-1-one] |  | > 50 | 1 to 50

Further lines, results first:

IC50 (human TLR7) [µM] | IC50 (human TLR8) [µM] | IC50 (human TLR9) [µM] | Structure (SMILES)
 | > 3.13 | 0.1 to 1 | CNCCN1CCC(c2ccc3[nH]c(-c4cnc5ccccc5c4)c(C)c3c2)CC1 [Example 664, N-methyl-2-(4-(3-methyl-2-(quinolin-3-yl)-1H-indol-5-yl)piperidin-1-yl)ethan-1-amine]
< 0.1 | < 0.1 |  | Cc1cc(-c2[nH]c3ccc(C4CCN(C(=O)C[C@H](C)O)CC4)cc3c2C(C)C)cn2nnnc12 [Example 593, (S)-3-hydroxy-1-(4-(3-isopropyl-2-(8-methyltetrazolo[1,5-a]pyridin-6-yl)-1H-indol-5-yl)piperidin-1-yl)butan-1-one]
0.1 to 1 | 0.1 to 1 |  | CC(C)c1c(-c2ccnc3[nH]ncc23)[nH]c2ccc(C3CCN(Cc4ccncc4Cl)CC3)cc12 [Example 923, 4-(5-(1-((3-chloropyridin-4-yl)methyl)piperidin-4-yl)-3-isopropyl-1H-indol-2-yl)-1H-pyrazolo[3,4-b]pyridine]
 | > 3.13 | 0.1 to 1 | Cc1c(-c2ncnc3c2cnn3C)[nH]c2ccc(C3CCN(C4CCN(C(C)C)CC4)CC3)cc12 [Example 818, 4-(5-(1′-isopropyl-[1,4′-bipiperidin]-4-yl)-3-methyl-1H-indol-2-yl)-1-methyl-1H-pyrazolo[3,4-d]pyrimidine]
 | < 0.1 | 0.1 to 1 | COC(=O)C1CC(N2CCC(c3ccc4[nH]c(-c5ccnc6[nH]ncc56)c(C(C)C)c4c3)CC2)CCN1 (centres unmarked) [Example 825, methyl 4-(3-isopropyl-2-(1H-pyrazolo[3,4-b]pyridin-4-yl)-1H-indol-5-yl)-[1,4′-bipiperidine]-2′-carboxylate]
 | < 0.1 | 1 to 50 | COc1cc(-c2[nH]c3ccc(C4CCN(CCS(C)(=O)=O)CC4)cc3c2C(C)C)cn2ccnc12 [Example 801, 6-(3-isopropyl-5-(1-(2-(methylsulfonyl)ethyl)piperidin-4-yl)-1H-indol-2-yl)-8-methoxyimidazo[1,2-a]pyridine]
